From patent US20260284275A1, “NANOGEL COMPRISING BIOACTIVE MOLECULES, THERAPEUTIC MOLECULES OR DRUGS TOGETHER WITH AN AMPHIPHILIC MOLECULE” (CM4CURE S.A., priority 2023, published 2026)

Key:
[1] = system: S. aureus (ATCC BAA-1556, MRSA); test: Real-time microcalorimetry (Calscreener) of bacterial growth in TSB; type: cell-based; settings: for bacterial growth (heat flow): 24 h, 37° C.
Procedure: S. aureus (ATCC BAA-1556, MRSA) was grown overnight in TSB (tryptic soy broth) medium, before being diluted 1×10^4 fold in fresh TSB. Subsequently […] aliquots of diluted bacteria suspensions were supplemented with 10 μg/mL and 20 μg/mL of respectively triafluocyl (Polpharma) alone or in the mixture with TPGS (MedChemExpress LLC (Europe)) (1:1 w/w). Both Triafluocyl and TPGS were prepared in absolute ethanol as already mentioned in the above examples and were refrigerated as master stocks in absolute ethanol. Triafluocyl, TPGS or ethanol (0.6% final conc.) as a vehicle were added to the bacterial suspensions to obtain the concentrations (10 μg/mL and 20 μg/m) followed by a brief vortexing. Bacterial aliquots were then distributed in the dedicated non-activated inserts of a 48-well plate and grown for 24 h under static conditions at 37° C. using Calscreener technology to measure bacterial growth and metabolic activity in Real-Time as described in https://cordis.europa.eu/project/id/784514.
In FIG. 6, the real-time microcalorimetric measurements of bacterial metabolic activity is expressed as the heat flow and represents bacterial growth in TSB medium. Solid line stands for control bacteria with a vehicle (0.6% ethanol); thick dashed line—bacteria treated with 10 μg/mL of triafluocyl; thick dotted line—bacteria treated with 20 μg/mL of triafluocyl; thin dashed line—bacteria treated with both triafluocyl and TPGS (10 μg/mL:10 μg/mL); thin dotted line—bacteria treated with both triafluocyl and TPGS (20 μg/mL:20 μg/mL).

[2] = system: S. aureus (MRSA, ATCC 6538); test: Real-time microcalorimetry of bacterial growth in liquid medium; type: cell-based; settings: Fluometacyl 10 or 20 μg/mL with hydroxypropyl-β-cyclodextrin 42 μg/mL, 24 h
Procedure: S. aureus (MRSA, ATCC 6538) was grown overnight in TSB (tryptic soy broth) medium, before being diluted 1×10^7 fold in the fresh TSB. Subsequently […] aliquots of diluted bacteria suspensions were supplemented with Fluometacyl® (10 or 20 μg/mL) or mixture of Fluometacyl® (10 or 20 μg/mL) and hydroxypropyl-β-cyclodextrin (42 μg/mL). Subsequently 300 μL of suspensions were placed into the dedicated non-activated inserts of a 48-well plate and allowed for growing for 24 h under static conditions at 37 C using Calscreener.
Curve A—control bacterial growth for S. aureus MRSA 10^−6; Curve B—Bacteria with Fluometacyl® (10 μg/mL); Curve C—Bacteria with Fluometacyl® (10 μg/mL) and hydroxypropyl-β-cyclodextrin (42 μg/mL); Curve D—Bacteria with Fluometacyl® (20 μg/mL); Curve E—Bacteria with Fluometacyl® (20 μg/mL) and hydroxypropyl-β-cyclodextrin (42 μg/mL).

## D-α-tocopheryl polyethylene glycol succinate [TPGS]
[1]; TPGS at equivalent amount (1:1 w/w) to triafluocyl, 10 and 20 μg/mL
  effect of added TPGS on the inhibitory effect of triafluocyl on bacterial growth: significantly reduced the inhibitory effect

## CCCSc1nc(N[C@@H]2C[C@H]2c2ccc(F)c(F)c2)c2nnn([C@@H]3C[C@H](OCCO)[C@@H](O)[C@H]3O)c2n1 [Triafluocyl]
[1]; 10 μg/mL
  bacterial growth (heat flow): significantly reduces
[1]; 20 μg/mL
  bacterial growth (heat flow): fully inhibited

## CC(O)COC[C@H]1O[C@@H]2O[C@H]3[C@H](O)[C@@H](O)[C@@H](O[C@H]4[C@H](O)[C@@H](O)[C@@H](O[C@H]5[C@H](O)[C@@H](O)[C@@H](O[C@H]6[C@H](O)[C@@H](O)[C@@H](O[C@H]7[C@H](O)[C@@H](O)[C@@H](O[C@H]8[C@H](O)[C@@H](O)[C@@H](O[C@H]1[C@H](O)[C@H]2O)O[C@@H]8COCC(C)O)O[C@@H]7COCC(C)O)O[C@@H]6COCC(C)O)O[C@@H]5COCC(C)O)O[C@@H]4COCC(C)O)O[C@@H]3COCC(C)O (stereo partly drawn) [hydroxypropyl-β-cyclodextrin]
[2]
  effect on the antibacterial activity of Fluometacyl in solution: didn't impair
